{"source": "patent US20260167972A1", "about": "“AMINO ACID DERIVATIVES AS NOVEL DELIVERY AGENTS FOR FUNCTIONAL DELIVERY OF OLIGONUCLEOTIDES” (University of Rochester, priority 2022, published 2026)", "key": {"[1]": {"assay": "Transmission electron microscopy of N-X-Phe-DAP/siRNA nanoparticles", "type": "physicochemical", "conditions": "for Diameter (nm), TEM: N-X-Phe-DAP/siRNA nanoparticles, 5 μM derivative, 30 nM siRNA, ± standard deviation; for morphology of siRNA nanoparticles/aggregates: TEM images, FIG. 4", "protocol": "Each N-X-Phe-DAP derivative (100 μM) was mixed with siRNA (600 nM) in H2O for 30 minutes, followed by dilution of this mixture into DMEM cell culture media to final concentrations of 5 μM N-X-Phe-DAP derivative and 30 nM siRNA. Dynamic light scattering (DLS) and transmission electron microscopy (TEM) were utilized to analyze the physical characteristics of the resulting N-X-Phe-DAP/siRNA nanoparticles (Table 2, FIG. 4). […] Average diameter (nm), determined by dynamic light scattering (DLS) and TEM imaging, is reported as the average of […] with the error reported as the standard deviation of the mean. Binding affinity (Kd) of each agent to siRNA was determined by a slot blot filtration assay with values reported as the average of three measurements and error reported as the standard deviation of the mean. […] (B) Diameter (nm) determined by TEM (n=9, ***p≤0.001 ****p≤0.0001).\nTransmission Electron Microscopy: N-X-Phe-DAP derivatives (100 μM) were complexed with siRNA (600 nM) in Ultrapure™ DNase/RNase-Free Distilled Water (Invitrogen 10977015) and allowed to incubate for 30 minutes at room temperature. These solutions were then diluted into water to give final concentrations of 5 μM Phe derivative and 30 nM siRNA. Samples (5 μL) were spotted on 200 mesh carbon coated copper grids and excess solvent was removed by capillary action with filter paper after 60 seconds. Grids were then stained with uranyl acetate (5 μL) for 60 seconds by excess solvent was removed by capillary action with filter paper. Grids were left to dry for 10 minutes. Images were taken using a Hitachi 7650 transmission electron microscope with an accelerating voltage of 80 kV."}, "FITC-siRNA": {"target": "FITC-siRNA", "assay": "Slot blot filtration binding affinity assay", "conditions": "binding to siRNA (FITC-siRNA); average of three measurements ± standard deviation", "protocol": "The binding affinity (Kd) of N-X-Phe-DAP derivatives to siRNA was next characterized to determine how the chemical functionality of the Phe derivatives impacts siRNA interactions. Comparative binding affinity (Kd) of N-X-Phe-DAP derivatives to fluorescently labeled FITC-siRNA was determined using a slot blot filtration assay (Table 2). […] Therefore, the decrease in binding affinity of Fmoc-F5-Phe-DAP for siRNA is likely due to competition between siRNA binding and self-assembly.\nSlot Blot Binding Affinity Measurements (see FIGS. 39-48): Nitrocellulose (Bio-Rad, #1620112) and nylon membranes (VWR, #95038-400) were soaked in 100 mM Tris-HCl buffer for 20 minutes. The membranes were then stacked on two sheets of Bio-Rad SF thick filter paper (#1620161) in a Bio-Rad SF 48-well slot blot apparatus. 200 μL of 100 mM Tris-HCl buffer was added to each well to test for even vacuum distribution and for membrane rehydration three times. N-X-Phe-DAP derivatives were prepared in concentrations ranging from 4000 μM to 0 μM and incubated with FITC-siRNA (6.5 μL, 1 μM) for 30 minutes in the dark. 40 μL of each sample, in addition to 200 μL Tris-HCl buffer was run in triplicate and the apparatus was covered with aluminum foil for 20 minutes. The vacuum was opened, allowing for samples in the wells to penetrate the membranes. After closing the vacuum, 200 μL of Tris-HCl buffer was added to rinse each well followed by re-opening of the vacuum three times. Membranes were then dried and imaged on Bio-Rad ChemiDoc MS. Fluorescence intensity density measurements were made using Image J. The fraction bound of siRNA was calculated using the following equation, where Initro is the fluorescence intensity measured from the nitrocellulose membrane and Inylon is the fluorescence intensity measured from the nylon membrane:\nThis equation is as follows where Y is the fraction bound, X is the N-X-Phe-DAP concentration (μM), Bmax is the maximum binding, Kd is the binding affinity, and h is the Hill slope: […]"}, "[2]": {"system": "A549 lung adenocarcinoma cells", "assay": "Cellular uptake of FITC-siRNA by fluorescence microscopy", "type": "cell-based, human", "conditions": "A549 cells dosed 4 hours; green fluorescence, FIG. 5", "protocol": "The N-X-Phe-DAP derivatives facilitate functional delivery of siRNA. N-X-Phe-DAP derivatives (100 μM) were incubated with a fluorescently labelled siRNA (FITC-siRNA, 600 nM) for 30 minutes in the dark followed by dilution into DMEM. A549 lung carcinoma cells were then dosed with these solutions for 4 hours, after which N-X-Phe-DAP/siRNA cellular uptake was visualized by confocal microscopy to visual FITC-siRNA in fixed cells in which the nuclei had been stained with DAPI nuclear stain (FIG. 5). Translocation of siRNA with the N-X-Phe-DAP derivatives was compared with Lipofectamine by observing the presence of green fluorescence (FITC-siRNA) in the images.\nSample Preparation for Cell-Based Experiments: For delivery analysis and functional knockdown, N-X-Phe-DAP derivatives (10 μL, 1 mM) or Lipofectamine 3000 (6 μL) was mixed with TTF-1 siRNA (Santa Cruz Biotechnology sc-36756, 6 μL, 10 μM) in Ultrapure™ DNase/RNase-Free Distilled Water (Invitrogen 10977015) to give a final volume of 100 μL. These mixtures were incubated for 30 minutes at room temperature, followed by dilution into 1×DMEM (Gibco 11965092, 1.9 mL). For cytotoxicity assays, N-X-Phe-DAP derivatives (10 μL, 1 mM) were diluted into 1×DMEM (Gibco 11965092, 1.9 mL).\nN-X-Phe-DAP-siRNA Cellular Delivery Analysis A549 lung adenocarcinoma cells (ATCC #) were seeded at a density of 1.05×10^5 cells/well in a glass bottom 24-well plate (500 μL) and grown to 70-90% confluency. Cells were washed with 1× phosphate buffered saline (PBS, Gibco 14190144), samples were added (500 μL/well), and incubated for 4 h at 37° C., 5% C02. After 4 h, media was removed, cells were washed with 1×PBS, and fixed with 4% paraformaldehyde solution. After 10 min, cells were washed twice with 1×PBS and incubated with DAPI stain (1 μg/mL) in the dark. After 5 min, cells were washed three times with 1×DPBS and stored at −20° C. until imaging. A Nikon T1 epifluorescence microscope was used for fluorescent imaging. Images were collected at 40× magnification using NIS-Elements Viewer (Nikon) software. All images were processed in Adobe Photoshop by selecting “image” then “Adjustments” then “Levels”. In the pop-up window, “Channel” was selected followed by “Green” and Output levels were adjusted with an upper limit of 200. In the sample pop-up window under “Options” the “Enhance Per Channel Contrast” was selected under algorithms."}}, "note": "Entries after “also recorded” stand apart in the source; their conditions may differ.", "data": [{"smiles": "NCCCNC(=O)[C@H](Cc1ccccc1)NC(=O)Cc1cccc2ccccc12", "note": "[1-Nap-Phe-DAP]", "values": [{"measurement": "Diameter (nm), TEM", "setting": "[1]", "value": "211 ± 17", "unit": "nm"}, {"measurement": "morphology of siRNA nanoparticles/aggregates", "setting": "[1]", "value": "spherical micelle-like structures"}, {"measurement": "Kd", "setting": "FITC-siRNA", "value": 293, "unit": "µM"}, {"measurement": "FITC-siRNA delivery compared with Lipofectamine", "setting": "[2]", "value": "improved siRNA delivery"}]}, {"smiles": "NCCCNC(=O)[C@H](Cc1ccccc1)NC(=O)Cc1ccc2ccccc2c1", "note": "[2-Nap-Phe-DAP]", "values": [{"measurement": "Diameter (nm), TEM", "setting": "[1]", "value": "450 ± 27", "unit": "nm"}, {"measurement": "morphology of siRNA nanoparticles/aggregates", "setting": "[1]", "value": "spherical micelle-like structures"}, {"measurement": "Kd", "setting": "FITC-siRNA", "value": 186, "unit": "µM"}, {"measurement": "FITC-siRNA delivery compared with Lipofectamine", "setting": "[2]", "value": "on par with Lipofectamine"}]}, {"smiles": "NCCCNC(=O)[C@H](Cc1ccccc1)NC(=O)OCc1ccccc1", "note": "[Cbz-Phe-DAP]", "values": [{"measurement": "Diameter (nm), TEM", "setting": "[1]", "value": "93 ± 9", "unit": "nm"}, {"measurement": "morphology of siRNA nanoparticles/aggregates", "setting": "[1]", "value": "smaller spheres"}, {"measurement": "Kd", "setting": "FITC-siRNA", "value": 97, "unit": "µM"}, {"measurement": "FITC-siRNA delivery compared with Lipofectamine", "setting": "[2]", "value": "improved siRNA delivery"}]}, {"smiles": "NCCCNC(=O)[C@H](Cc1ccccc1)NC(=O)C1CCCCC1", "note": "[Cyc-Phe-DAP]", "values": [{"measurement": "Diameter (nm), TEM", "setting": "[1]", "value": "71 ± 2", "unit": "nm"}, {"measurement": "morphology of siRNA nanoparticles/aggregates", "setting": "[1]", "value": "smaller spheres"}, {"measurement": "Kd", "setting": "FITC-siRNA", "value": "179 ± 8", "unit": "µM"}, {"measurement": "FITC-siRNA delivery compared with Lipofectamine", "setting": "[2]", "value": "on par with Lipofectamine"}]}, {"smiles": "NCCCNC(=O)[C@H](Cc1ccccc1)NC(=O)CC1c2ccccc2-c2ccccc21", "note": "[Fm-Phe-DAP]", "values": [{"measurement": "Diameter (nm), TEM", "setting": "[1]", "value": "163 ± 10", "unit": "nm"}, {"measurement": "morphology of siRNA nanoparticles/aggregates", "setting": "[1]", "value": "spherical micelle-like structures"}, {"measurement": "Kd", "setting": "FITC-siRNA", "value": "307 ± 34", "unit": "µM"}, {"measurement": "FITC-siRNA delivery compared with Lipofectamine", "setting": "[2]", "value": "on par with Lipofectamine"}]}, {"smiles": "NCCCNC(=O)[C@H](Cc1cccc(F)c1)NC(=O)OCC1c2ccccc2-c2ccccc21", "note": "[Fmoc-3F-Phe-DAP]", "values": [{"measurement": "Diameter (nm), TEM", "setting": "[1]", "value": "170 ± 8", "unit": "nm"}, {"measurement": "morphology of siRNA nanoparticles/aggregates", "setting": "[1]", "value": "mixtures of spherical particles and one-dimensional fibril-like structures"}, {"measurement": "Kd", "setting": "FITC-siRNA", "value": 131, "unit": "µM"}, {"measurement": "FITC-siRNA delivery compared with Lipofectamine", "setting": "[2]", "value": "on par with Lipofectamine"}]}, {"smiles": "NCCCNC(=O)[C@H](Cc1c(F)c(F)c(F)c(F)c1F)NC(=O)OCC1c2ccccc2-c2ccccc21", "note": "[Fmoc-F5-Phe-DAP]", "values": [{"measurement": "Diameter (nm), TEM", "setting": "[1]", "value": "140 ± 12", "unit": "nm"}, {"measurement": "morphology of siRNA nanoparticles/aggregates", "setting": "[1]", "value": "mixtures of spherical particles and one-dimensional fibril-like structures"}, {"measurement": "Kd", "setting": "FITC-siRNA", "value": 217, "unit": "µM"}, {"measurement": "FITC-siRNA delivery compared with Lipofectamine", "setting": "[2]", "value": "improved siRNA delivery"}]}, {"smiles": "NCCCNC(=O)[C@H](Cc1ccccc1)NC(=O)OCC1c2ccccc2-c2ccccc21", "note": "[Fmoc-Phe-DAP]", "values": [{"measurement": "Diameter (nm), TEM", "setting": "[1]", "value": "136 ± 7", "unit": "nm"}, {"measurement": "morphology of siRNA nanoparticles/aggregates", "setting": "[1]", "value": "spherical micelle-like structures"}, {"measurement": "Kd", "setting": "FITC-siRNA", "value": 159, "unit": "µM"}, {"measurement": "FITC-siRNA delivery compared with Lipofectamine", "setting": "[2]", "value": "improved siRNA delivery"}]}, {"smiles": "CCCCCCC(=O)N[C@@H](Cc1ccccc1)C(=O)NCCCN", "note": "[Hex-Phe-DAP]", "values": [{"measurement": "Diameter (nm), TEM", "setting": "[1]", "value": "81 ± 10", "unit": "nm"}, {"measurement": "morphology of siRNA nanoparticles/aggregates", "setting": "[1]", "value": "mixtures of spherical particles and one-dimensional fibril-like structures; also recorded: primarily exhibiting fibril and sheet-like structures that aggregate into bundles"}, {"measurement": "Kd", "setting": "FITC-siRNA", "value": "183 ± 9", "unit": "µM"}, {"measurement": "FITC-siRNA delivery compared with Lipofectamine", "setting": "[2]", "value": "improved siRNA delivery"}]}, {"smiles": "NCCCNC(=O)[C@H](Cc1ccccc1)NC(=O)CCCc1ccc2ccc3cccc4ccc1c2c34", "note": "[Pyr-Phe-DAP]", "values": [{"measurement": "Diameter (nm), TEM", "setting": "[1]", "value": "50 ± 5.0", "unit": "nm"}, {"measurement": "morphology of siRNA nanoparticles/aggregates", "setting": "[1]", "value": "mixtures of spherical particles and one-dimensional fibril-like structures; also recorded: dominated by fibril-like structures with some evidence of spherical nanoparticles"}, {"measurement": "Kd", "setting": "FITC-siRNA", "value": 32, "unit": "µM"}, {"measurement": "FITC-siRNA delivery compared with Lipofectamine", "setting": "[2]", "value": "improved siRNA delivery"}]}]}
